The subject of series [1] is healthy porcine arteries. Particulars: dosing of approximately 1.0 micrograms/mm^2 in a polymer coating.
Text: Paclitaxel coated metallic stents of various doses were implanted into healthy porcine arteries to determine the effect of dosage on biological response. Dosages used were approximately 4.0, 2.0, 1.0, and 0.6 micrograms per square millimeter of the stent surface area, corresponding to approximate total dosages of 345, 175, 85, and 50 micrograms per stent. The paclitaxel was contained within a styrene-isobutylene based block copolymer applied to the stent struts.
A short description of series [2]: in vitro release studies involving an aqueous environment (FIG. 2). The series is classed as physicochemical. The following applies: dose 1.0 micrograms/mm^2. The source says:
(§1) Using the 1.0 micrograms/mm^2 dose as an exemplary embodiment, the effects of release rate were investigated. Metallic stents were coated with paclitaxel in a styrene-isobutylene based block copolymer carrier with the weight percent of paclitaxel in the carrier varying from approximately 8.8 to about 35%. The dose of drug applied to the stents was kept at 1.0 micrograms/mm^2, and the total drug dose was held constant by varying total coating weight.

The nature of series [3]: biological response as a function of release rate from paclitaxel coated stent (FIGS. 2a-2c). The class given is in vivo. Particulars: dose 1.0 micrograms/mm^2.
Text: FIG. 2 and FIGS. 2a-2c illustrate the difference in biological response resulting from the difference in release rate from a paclitaxel coated stent.
as §1

[4] abbreviates: weight fraction less than about 35% in polymer carrier.

Take `CC(=O)O[C@H]1C(=O)[C@@]2(C)[C@H]([C@H](OC(=O)c3ccccc3)[C@]3(O)C[C@H](OC(=O)[C@H](O)[C@@H](NC(=O)c4ccccc4)c4ccccc4)C(C)=C1C3(C)C)[C@]1(OC(C)=O)CO[C@@H]1C[C@@H]2O` [paclitaxel]: in series [1], the safety and efficacy result was “superior safety and efficacy”. The “paclitaxel released within two days” value in series [2] (8.8% weight fraction in styrene-isobutylene based block copolymer carrier) is “about 2 micrograms”; in series [2] (35% weight fraction in styrene-isobutylene based block copolymer carrier), “approximately 45 micrograms”; in series [2] (setting [4]), “less than 45 micrograms”. In series [2] (all curves in FIG. 2 (weight fractions 8.8 to 35%)), the “release profile over time” value was “relatively rapid release rate over the first few days, followed by a slower, sustained release over up to about two weeks”. Besides, the “paclitaxel released within ten days” value in series [2] (setting [4]) is “less than 60 micrograms”. Also, the fibrin accumulation entry in series [3] (fastest release rate (FIG. 2a)) is “noticeable fibrin accumulation”; in series [3] (slower release rates (FIGS. 2b and 2c)), “did not result in this effect”.

Values taken from patent publication US7906133B2, “Optimized dosing for drug coated stents” (Boston Scientific Scimed, Inc., priority 2002, dated 2011).
